# Experimental data as given in US20020090373A1, “ADAMTS polypeptides, nucleic acids encoding them, and uses thereof” (priority 2000, published 2002).
# B1: Recombinant human ADAMTS-SI (protein)
# chain: FLSYPRFVEVLVVADNRMVSYHGENLQHYILTLMSIVASIYKDPSIGNLINIVIVNLIVIHNEQDGPSISFNAQTTLKNFCQWQHSKNSPGGIHHDTAVLLTRQDICRAHDKCDTLGLAELGTICDPYRSCSISEDSGLSTAFTIAHELGHVFNMPHDDNNKCKEEGVKSPQHVMAPTLNFYTNPWMWSKCSRKYITEFLDTGYGECLLNEPESRPYPLPVQLPGILYNVNKQCELIFGPGSQVCPYMMQCRRLWCNNVNGVHKGCRTQHTPWADGTECEPGKHCKYGFCVPKEMDVPVTDGSWGSWSPFGTCSRTCGGGIKTAIRECNRPEPKNGGKYCVGRRMKFKSCNTEPCLKQKRDFRDEQCAHFDGKHFNINGLLPNVRWVPKYSGILMKDRCKLFCRVAGNTAYYQLRDRVIDGTPCGQDTNDICVQGLCRQAGCDHVLNSKARRDKCGVCGGDNSSCKTVAGTFNTVHYGYNTVVRIPAGATNIDVRQHSFSGETDDDNYLALSSSKGEFLLNGNFVVTMAKREIRIGNAVVEYSGSETAVERINSTDRIEQELLLQVLSVGKLYNPDVRYSFNIPIEDKPQQFYWNSHGPWQACSKPCQGERKRKLVCTRESDQLTVSDQRCDRLPQPGHITEPCGTDCDLRWHVASRSECSAQCGLGYRTLDIYCAKYSRLDGKTEKVDDGFCSSHPKPSNREKCSGECNTGGWRYSAWTECSKSCDGGTQRRRAICVNTRNDVLDDSKCTHQEKVTIQRCSEFPCPQWKSGDWSECLVTCGKGHKHRQVWCQFGEDRLNDRMCDPETKPTSMQTCQQPECASWQAGPWGQCSVTCGQGYQLRAVKCIIGTYMSVVDDNDCNAATRPTDTQDCELPSCHPPPAAPETRRSTYSAPRTQWRFGSWTPCSATCGKGTRMRYVSCRDENGSVADESACATLPRPVAKEECSVTPCGQWKALDWSSCSVTCGQGRATRQVMCVNYSDHVIDRSECDQDYIPETDQDCSMSPCPQRTPDSGLAQHPFQNEDYRPRSASPSRTHVLGGNQWRTGPWGACSSTCAGGSQRRVVVCQDENGYTANDCVERIKPDEQRACESGPCPQWAYGNWGECTKLCGGGIRTRLVVCQRSNGERFPDLSCEILDKPPDREQCNTHACPHDAAWSTGPWSSCSVSCGRGHKQRNVYCMAKDGSHLESDYCKHLAKPHGHRKCRGGRCPKWKAGAWSQCSVSCGRGVQQRHVGCQIGTHKIARETECNPYTRPESERDCQGPRCPLYTWRAEEWQECTKTCGEGSRYRKVVCVDDNKNEVHGARCDVSKRPVDRESCSLQPCEYVWITGEWSEVPSWEL
# B2: recombinant human ADAMTS-4 (protein)
# chain: FASLSRFVETLVVADDKMAAFHGAGLKRYLLTVMAAAAKAFKHPSIRNPVSLVVTRLVILGSGEEGPQVGPSAAQTLRSFCAWQRGLNTPEDSDPDHFDTAILFTRQDLCGVSTCDTLGMADVGTVCDPARSCAIVEDDGLQSAFTAAHELGHVFNMLHDNSKPCISLNGPLSTSRHVMAPVMAHVDPEEPWSPCSARFITDFLDNGYGHCLLDKPEAPLHLPVTFPGKDYDADRQCQLTFGPDSRHCPQLPPPCAALWCSGHLNGHAMCQTKHSPWADGTPCGPAQACMGGRCLHMDQLQDFNIPQAGGWGPWGPWGDCSRTCGGGVQFSSRDCTRPVPRNGGKYCEGRRTRFRSCNTEDCPTGSALTFREEQCAAYNHRTDLFKSFPGPMDWVPRYTGVAPQDQCKLTCQAQALGYYYVLEPRVVDGTPCSPDSSSVCVQGRCIHAGCDRIIGSKKKFDKCMVCGGDGSGCSKQSGSFRKFRYGYNNVVTIPAGATHILVRQQGNPGHRSIYLALKLPDGSYALNGEYTLMPSPTDVVLPGAVSLRYSGATAASETLSGHGPLAQPLTLQVLVAGNPQDTRLRYSFFVPRPTPSTPRPTPQDWLHRRAQILEILRRRPWAGRK
# Legend:
# [1] = biological target: aggrecanase activity secreted by human osteoarthritic cartilage; details: cited from earlier work
# [2] = tested on: IL-1 induced aggrecan degradation in human osteoarthritic cartilage explants; details: cited from earlier work
# [3] = tested on: aggrecan degradation induced by intraarticular injection of IL-1; details: hamsters, intraarticular injection of IL-1, 30 mg/kg p.o.; cited from earlier work
# [4] = biological target: T1, Recombinant human ADAMTS-SI (Homo sapiens, UniProt Q9P2N4); test: Western blot (anti-NITEGE neoepitope) of aggrecanase substrate cleavage by ADAMTS-SI ± compound I; format: biochemical; details: 1 μM compound I, 1 μM substrate, 18 hours at 37° C., FIG. 8
# T1 construct: made in house
# T1 sequence (Q9P2N4 288-1629 isoform Q9P2N4-1 limits assumed): B1 chain
# Method: (§1) Recombinant human ADAMTS-SI (20 μl) and recombinant human ADAMTS-4 (MD Tortorella, Science, 284:1664) (20 μl) were incubated with 1 μM of aggrecanase substrate (aggrecan protein containing the interglobular domain (IGD)). The substrate is cleaved at the relevant aggrecanase site by aggrecanases such as ADAMTS-4. […] The aggrecanase substrate has been used to assess the activity of various aggrecanases, such as ADAMTS-4, and their inhibitors, such as compound I, shown below, and described in EP 1081137, published Mar. 7, 2001: [drawing 1]
# (§2) Incubations were carried out in 20 μl TSC buffer (50 mM Tris, pH 7.5 100 mM NaCl, 10 mM CaCl2) with protease inhibitor cocktail (“Complete”, EDTA free from Roche: catalog number 1873580)±1 μM compound I, for 18 hours at 37° C. The reactions were stopped by the addition of EDTA to 10 mM final concentration. The reaction mixtures were prepared for SDS-PAGE by the addition of 40 μl 2× sample buffer (Novex) containing 0.5 M DTT and then separated on 4-20% Tris glycine gels (Novex). […]
# (§3) Treatment of the aggrecan protein with aggrecanases results in the formation of a characteristic cleavage site in the IGD. […] The crude rabbit antiserum was affinity purified against the corresponding neoepitope sequence and absorbed against a read-through peptide to ensure specificity for the neoepitope sequence. […]
# [5] = biological target: T2, recombinant human ADAMTS-4 (Homo sapiens, UniProt O75173); test: Western blot (anti-NITEGE neoepitope) of aggrecanase substrate cleavage by ADAMTS-4 ± compound I; format: biochemical; details: 1 μM compound I, 1 μM substrate, 18 hours at 37° C., FIG. 8
# T2 sequence (O75173 213-837): B2 chain
# Method: as §1, §2, §3
# [6] = biological target: aggrecanase substrate (aggrecan protein containing the interglobular domain (IGD)), uncleaved
# [7] = tested on: aggrecanase substrate (aggrecan protein containing the interglobular domain (IGD)); test: Cleavage of aggrecanase substrate by recombinant enzymes (anti-NITEGE Western blot); format: biochemical; details: 20 μl enzyme, 1 μM substrate, 18 hours at 37° C., FIG. 8
# Method: as §1, §2, §3
Molecule,IC50 [1],IC50 [2],inhibition of aggrecan degradation [3],inhibition of ADAMTS-SI aggrecanase activity (cleavage of aggrecanase substrate) [4],inhibition of ADAMTS-4 aggrecanase activity (cleavage of aggrecanase substrate) [5],cleavage of the aggrecanase substrate at the aggrecanase site (Western blot with anti-NITEGE neoepitope antibody) [6],cleavage of aggrecanase substrate at aggrecanase site (NITEGE neoepitope) [7]
C[C@@]1(O)CCCN(S(=O)(=O)c2ccc(OCc3ccc(F)cc3Cl)cc2)[C@H]1C(=O)NO [compound I],4.1 nM,8 nM,93 % inhibition,blocked,blocked,,
B1,,,,,,treatment of the substrate with both ADAMTS-4 and ADAMTS-SI resulted in cleavage at the previously characterized aggrecanase cleavage site,
B2,,,,,,treatment of the substrate with both ADAMTS-4 and ADAMTS-SI resulted in cleavage at the previously characterized aggrecanase cleavage site,resulted in cleavage at the previously characterized aggrecanase cleavage site
